Results reported in US20250084121A1, “BIOREACTIVE COMPOSITIONS AND METHODS OF USE THEREOF” (The Regents of the University of California, priority 2018, published 2025).

What was measured:
[1] = target: T1, extracellular domain of the hGH receptor (Homo sapiens, UniProt P10912); experiment: Covalent crosslinking of hGH with the extracellular domain of hGH receptor (Western blot); assay type: binding; conditions: PBS buffer, different durations of time, Western blot anti-Hisx6
T1 construct: incubated with the extracellular domain of the hGH receptor
T1 sequence (P10912 19-264): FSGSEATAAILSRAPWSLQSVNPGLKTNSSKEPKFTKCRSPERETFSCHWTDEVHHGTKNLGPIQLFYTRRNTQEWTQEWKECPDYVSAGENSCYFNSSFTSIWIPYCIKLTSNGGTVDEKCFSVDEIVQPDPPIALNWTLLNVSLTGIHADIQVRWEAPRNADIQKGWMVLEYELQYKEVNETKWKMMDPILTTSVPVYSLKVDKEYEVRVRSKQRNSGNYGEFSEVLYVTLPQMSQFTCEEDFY

[2] = tested on: STAT5 phosphorylation in BAF3 cells, a cell line with hGH receptor expression; experiment: pSTAT5 production in BAF3 cells upon stimulation by hGH (Western blot); assay type: cell-based; conditions: Western blot of cell lysates
Excerpt: It was also examined whether FSY incorporation into hGH would affect its biological activity. Upon hGH binding with its receptor, STAT5 is phosphorylated as a downstream signal via the JAK/STAT pathway, leading to transcription of genes important for cell immunity, proliferation, and apoptosis (Waters, M J. et al. Clin. Exp. Pharmacol. Physiol. 1999, 10760-764). The inventors stimulated BAF3 cells, a cell line with hGH receptor expression, with hGH(WT) and hGH(FSY), and then probed pSTAT5 expression using Western blot analysis of cell lysates.

E. coli DH10B cells = experiment: Growth curve of E. coli DH10B cells in the presence or absence of FSY; assay type: cell-based; conditions: 1 mM FSY, 37° C.
Protocol: FIG. 6 provides a growth curve of E. coli DH10B cells at 37° C. in the presence or absence of 1 mM FSY. The experiments were repeated for three times.
The incorporation specificity of FSY into proteins in E. coli was evaluated. The Zspa affibody (Afb) gene containing a TAG codon at position 36 (Afb-36TAG) was co-expressed with the tRNA^Pyl/FSYRS pair in E. coli. In the absence of FSY, no full-length Afb was detected; when 1 mM FSY was added in growth media, full-length Afb36FSY was produced with a yield of 1.6 mg/L (FIG. 1C). The purified Afb36FSY was analyzed by electrospray ionization time-of-flight mass spectrometry (ESI-TOF MS) (FIG. 1D). A peak observed at 7855.96 Da corresponds to intact Afb containing FSY at site 36 (Afb36FSY: expected 7856.69 Da). A peak measured at 7724.77 Da corresponds to Afb36FSY lacking the initiating Met (Afb36FSY-Met: expected 7725.50 Da). […] FSY was also incorporated at position 24 of the Z protein and analyzed with tandem MS.

293T cells = experiment: Cell viability assay with various concentrations of FSY; assay type: cell-based
[3] = tested on: HeLa-EGFP-182TAG reporter cells; experiment: as above; assay type: cell-based
[4] = tested on: HeLa-EGFP-182TAG reporter cells; experiment: FACS analysis of Uaa incorporation into EGFP-182TAG reporter cells; assay type: cell-based
Protocol: (§1) FSY incorporation into proteins in mammalian cells was tested. HeLa-EGFP-182TAG reporter cells were transfected with plasmid pMP-FSYRS-3×tRNA, which expresses FSYRS and tRNA^Pyl genes. Wang et al, Nat. Neurosci., 10:1063-1072 (2007). Suppression of the 182TAG codon would produce full-length EGFP rendering cells fluorescent. After transfection, cells were incubated with FSY of various concentrations at 37° C. for 24 or 48 h followed by flow cytometry. […] The fluorescence intensity increased with FSY concentration and incubation time (FIG. 2B, FIG. 7). As a positive control, p-azido-L-phenylalanine (AzF) was incorporated into reporter cells in parallel using plasmid pIre-Azi3, which is the most efficient Uaa incorporation system in mammalian cells in our hands. Coin et al, Cell, 155:1258-1269 (2013). […] No fluorescence signal was detected when FSY was not added.
FACS analysis of Uaa incorporation into HeLa-GFP-182TAG reporter cells: One day before transfection, 4.5×10^4 HeLa-EGFP-182TAG reporter cells (Wang et al, Nat. Neurosci., 10:1063-1072 (2007)) were seeded in a Greiner bio-one 24 well-cell culture dish containing 500 μL of DMEM media with 10% FBS, and incubated at 37° C. in a CO2 incubator. […] The cells were resuspended in 300 μL of FACS buffer (1×PBS, 2% FBS, 1 mM EDTA, 0.1% sodium azide, […]) and analyzed by BD LSRFortessa™ cell analyzer.

[5] = tested on: HeLa-EGFP-182TAG reporter cells; experiment: Fluorescence confocal microscopy of reporter cells; assay type: cell-based; conditions: in the presence of FSY
Protocol: as §1, with “(2013). FSY incorporation compared favorably with AzF, reaching 76% of the AzF level. […] Chen et al, J. Am. Chem. Soc., 138:7353-7364 (2016).” for “(2013).”
Fluorescence confocal microscopy of HeLa-EGFP-182TAG reporter cells: One day before transfection, 4.5×10^4 HeLa-EGFP-182TAG cells were seeded in a Greiner bio-one CELLview glass bottom dish containing 500 μL of DMEM media with 10% FBS, and incubated at 37° C. in a CO2 incubator. […]

| Compound | covalent crosslinking with the hGH receptor (band at ~50 kD) [1] | stimulation of STAT5 phosphorylation [2] | E. coli growth (cytotoxicity) (E. coli DH10B cells) | toxicity to 293T cells (293T cells) | toxicity to HeLa cells [3] | FSY incorporation relative to the AzF level ([4]; EGFP-182TAG suppression in HeLa reporter cells, AzF as positive control) [%] | EGFP fluorescence by flow cytometry ([4]; cells transfected with pMP-FSYRS-3×tRNA, FSY at 37° C. for 24 or 48 h) | cell morphology [5] |
| --- | --- | --- | --- | --- | --- | --- | --- | --- |
| hGH(FSY): Human growth hormone with FSY genetically incorporated at site 68 | covalently crosslinked | the same effect of stimulating STAT5 phosphorylation as the hGH(WT) |  |  |  |  |  |  |
| N[C@@H](Cc1ccc(OS(=O)(=O)F)cc1)C(=O)O [FSY, fluorosulfate-L-tyrosine] |  |  | did not affect E. coli growth | no obvious toxicity | no obvious toxicity | 76 | Strong EGFP fluorescence | remained normal |
